What was measured:
Type in all cases: biochemical
human GALK = target: T1, human GALK (Homo sapiens, UniProt P51570); assay: standard pyruvate kinase/lactate dehydrogenase-coupled GALK assay; conditions: dose response, FIG. 7; values somewhat lower than in the luminescence assay; no numbers given
T1 construct: made in house; host or cells: Escherichia coli HMS174 (DE3), plasmid pET15b
Source text: As the percentage of substrate conversion can have significant impact on the accuracy of IC50 determination, the preferred approach is to determine reaction rates at initial velocity (i.e., zero substrate conversion). […] In this assay, the amount of galactose present in the reaction is kept in excess, whereas ATP consumed by the galactokinase reaction is recycled by the pyruvate kinase reaction.
As the percentage of substrate conversion can have significant impact on the accuracy of IC50 determination, the preferred approach is to determine reaction rates at initial velocity (i.e., zero substrate conversion). […] The dose response of the selected compounds was analyzed using the standard pyruvate kinase/lactate dehydrogenase-Coupled assay. In this assay, the amount of galactose present in the reaction was kept in excess, whereas ATP consumed by the galactokinase reaction was recycled by the pyruvate kinase reaction.

[1] = target: T2, purified recombinant E. coli CDP-ME kinase (Escherichia coli, UniProt P62615); assay: CDP-ME kinase assay (luminescence-based); conditions: CDP-ME as substrate; increasing compound concentration; FIG. 10B
T2 construct: made in house; host or cells: E. coli HMS174
T2 sequence (P62615 1-283): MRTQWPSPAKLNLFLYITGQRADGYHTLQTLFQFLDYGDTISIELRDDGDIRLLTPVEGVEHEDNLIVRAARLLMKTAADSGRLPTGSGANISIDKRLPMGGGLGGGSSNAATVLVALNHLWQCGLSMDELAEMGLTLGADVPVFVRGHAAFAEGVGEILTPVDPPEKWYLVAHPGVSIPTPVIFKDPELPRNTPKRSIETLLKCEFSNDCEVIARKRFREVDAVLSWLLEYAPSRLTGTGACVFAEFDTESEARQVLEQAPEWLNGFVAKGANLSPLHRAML
Protocol: Detailed Protocol for CDP-ME Kinase Assay
Protocol: Mix I was prepared using 1 microL for MVK. If dilutions are to be made, dilute in 1× buffer to 1 microL. Mix II was prepared just before use, as CMP-ME and ATP may deteriorate. Final CMP-ME concentration was chosen at 50 microM for the sake of economics and kept on ice until it was dispensed.
At least 4 replicates per condition were used in the experiment. Mix I was dispensed on the plate with a pipette. Mix II was then added and the plate covered with foil. The plates was incubated at 37° C. for 15 minutes and Kinase-Glo® (Promega, Madison Wis.) was added, the plate covered with foil, and incubated at RT for 15 minutes. Measurements were taken as described for the GALK protocol, the data were plotted and the enzyme concentration with reading within linear range just above baseline was selected.
Protocol to test for inhibition: Compound stored at −80° C. was slowly thawed. Stock was at 10 mM concentration.
These were incubated for 1 hour with MVK. Each dilution was then be pipetted into wells (40 microL each). 20 microL of Mix II was added to each well and covered with foil. The plates were incubated at 37° C., for 15 minutes, then Kinase-Glo® (Promega, Madison, Wis.) was added, plates were covered with foil, and incubated at room temperature (RT) for 15 minutes. The data was plotted and the IC50 was calculated.

[2] = target: T3, human galactokinase (GALK) (Homo sapiens, UniProt P51570); assay: two-step luminescence-based (Kinase-Glo) high-throughput GALK assay; conditions: ATP-γ-S from 0 to 13.3 μM, ATP constant at 5 μM; FIG. 3C
T3 construct: made in house; host or cells: Escherichia coli HMS174 (DE3), plasmid pET15b
Protocol: Using the Kinase-Glo™ reagent (Promega, Madison, Wis.), a miniaturized, two-step HTS assay for GALK was developed. […] After 60 minutes at room temperature (22° C.), 30 μL of Kinase Glo™ (Promega) was added, and luminescence was measured within 30 min using an Envision Multilabel Plate Reader (Perkin Elmer). In the course of 12 days, nearly 50,000 compounds from various libraries of small molecules with diverse structural scaffolds were screened for their inhibitory properties of GALK activity in vitro. […] The reaction was then allowed to proceed at room temperature (22° C.) for 60 min. Then, 30 μL of Kinase-Glo™ was added to stop the reaction, and luminescence was measured 15 to 30 min later using the Envision Multilabel Plate Reader (PerkinElmer). 50,000 small molecules were screened, in duplicate, for inhibitory properties against purified GALK. […] In short, duplicate luminescence measurements were corrected for background measurements using the method described by Seiler et al. (Nucl. Acids Res 2007). […] After 60 min at room temperature (22° C.), 30 μL of Kinase-Glo™ was added, and luminescence was measured within 30 min using an Envision Multilabel Plate Reader (PerkinElmer, Waltham, Mass.). […] Then, 30 μl of Kinase-Glo™ was added to stop the reaction, and luminescence was measured 15 to 30 min later using the Envision Multilabel Plate Reader (PerkinElmer). […]

T1 sequence (P51570 whole entry): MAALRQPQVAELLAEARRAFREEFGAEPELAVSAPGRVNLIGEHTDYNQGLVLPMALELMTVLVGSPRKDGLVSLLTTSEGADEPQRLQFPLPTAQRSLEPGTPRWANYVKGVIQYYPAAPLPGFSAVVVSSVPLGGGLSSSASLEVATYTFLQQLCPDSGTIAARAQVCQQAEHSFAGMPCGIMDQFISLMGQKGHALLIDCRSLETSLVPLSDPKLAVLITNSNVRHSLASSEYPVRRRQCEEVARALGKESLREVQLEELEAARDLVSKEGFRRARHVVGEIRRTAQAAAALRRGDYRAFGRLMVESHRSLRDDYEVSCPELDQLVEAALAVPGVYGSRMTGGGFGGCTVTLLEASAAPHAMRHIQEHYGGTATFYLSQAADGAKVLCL
T3 sequence (P51570 whole entry): as above

Row | Compound | IC50 values confirmed in coupled assay (human GALK) | inhibition of E. coli CDP-ME kinase [1] | inhibition of GALK activity by ATP mimetic [2]
1 | CC1(c2ccccc2)CC(C)(C)N2C(=O)/C(=C3/SC(=O)NC3=O)c3cccc1c32 (stereo not drawn) [compound 3] | confirmed |  | 
2 | Oc1c(Cl)cc(Cl)c(Cl)c1Cc1c(O)c(Cl)cc(Cl)c1Cl [compound 9, Hexachlorophene] | confirmed | inhibits E. coli CDP-ME kinase | 
3 | CC(C)(C)C(=O)Nc1ccc2c(c1)C(=O)C(=O)c1ccccc1-2 [compound 1, Tyrosine Phosphatase CD45 inhibitor] | confirmed |  | 
4 | Nc1ncnc2c1ncn2[C@@H]1O[C@H](COP(=O)(O)OP(=O)(O)OP(O)(O)=S)[C@@H](O)[C@H]1O [ATP-γ-S, adenosine 5′-O-(3-thio-)triphosphate] |  |  | acted as a GALK inhibitor
5 | COC1=C(N)C(=O)c2nc(-c3nc(C(=O)O)c(C)c(-c4ccc(OC)c(OC)c4O)c3N)ccc2C1=O [compound 24, Streptonigrin] | confirmed |  | 
